Reference: ChEMBL document CHEMBL1142851, “An efficient synthesis of aryloxyphenyl cyclopropyl methanones: a new class of anti-mycobacterial agents” (2005)
Values after ≈ are worked out from the molar mass of the structure shown.

What was measured:
[1] = test system: Mycobacterium tuberculosis; assay: Minimum inhibitory concentration against H37Ra stain of Mycobacterium tuberculosis using MABA method; assay type: functional
[2] = test system: Mycobacterium tuberculosis; assay: Minimum inhibitory concentration against H37Rv stain of Mycobacterium tuberculosis using Agar Microdilution; assay type: functional

O=C(c1ccc(OCc2ccncc2)cc1)C1CC1
MIC [1]: > 25 µg/mL
MIC [2]: 12.5 µg/mL (≈ 49.3 µM)

COc1ccc(COc2ccc(C(=O)C3CC3)cc2)cc1
MIC [1]: > 50 µg/mL
MIC [2]: 12.5 µg/mL (≈ 44.3 µM)

OC(c1ccc(OCc2ccccc2Cl)cc1)C1CC1 (configuration not stated)
MIC [1]: > 25 µg/mL

OC(c1ccc(OCc2ccncc2)cc1)C1CC1 (configuration not stated)
MIC [1]: > 25 µg/mL
MIC [2]: > 25 µg/mL

Clc1ccccc1COc1ccc(CC2CC2)cc1
MIC [1]: > 25 µg/mL
MIC [2]: > 50 µg/mL

COc1ccc(COc2ccc(C(O)C3CC3)cc2)cc1OC (configuration not stated)
MIC [1]: 3.12 µg/mL (≈ 9.92 µM)
MIC [2]: > 50 µg/mL

c1cncc(COc2ccc(CC3CC3)cc2)c1
MIC [1]: > 25 µg/mL
MIC [2]: 25 µg/mL (≈ 104 µM)

O=C(c1ccc(OCc2ccccc2)cc1)C1CC1
MIC [1]: 25 µg/mL (≈ 99.1 µM)
MIC [2]: 6.25 µg/mL (≈ 24.8 µM)

O=C(c1ccc(OCc2cccnc2)cc1)C1CC1
MIC [1]: > 25 µg/mL
MIC [2]: 25 µg/mL (≈ 98.7 µM)

OC(c1ccc(OCC2CCCC2)cc1)C1CC1 (configuration not stated)
MIC [1]: 25 µg/mL (≈ 101 µM)
MIC [2]: 3.12 µg/mL (≈ 12.7 µM)

COc1ccc(COc2ccc(CC3CC3)cc2)cc1OC
MIC [1]: 12.5 µg/mL (≈ 41.9 µM)
MIC [2]: 25 µg/mL (≈ 83.8 µM)

c1ccc(COc2ccc(CC3CC3)cc2)cc1
MIC [1]: > 50 µg/mL
MIC [2]: 12.5 µg/mL (≈ 52.4 µM)

OC(c1ccc(OCc2cccnc2)cc1)C1CC1 (configuration not stated)
MIC [1]: > 25 µg/mL
MIC [2]: > 25 µg/mL

O=C(c1ccc(OCc2ccccc2Cl)cc1)C1CC1
MIC [1]: > 25 µg/mL
MIC [2]: 12.5 µg/mL (≈ 43.6 µM)

O=C(c1ccc(OCc2ccc(Cl)c(Cl)c2)cc1)C1CC1
MIC [1]: > 25 µg/mL
MIC [2]: 25 µg/mL (≈ 77.8 µM)

COc1ccc(COc2ccc(C(=O)C3CC3)cc2)cc1OC
MIC [1]: 25 µg/mL (≈ 80 µM)
MIC [2]: 12.5 µg/mL (≈ 40 µM)

O=C(c1ccc(OCCc2ccco2)cc1)C1CC1
MIC [1]: 25 µg/mL (≈ 97.5 µM)
MIC [2]: 25 µg/mL (≈ 97.5 µM)

OC(c1ccc(OCc2ccccc2)cc1)C1CC1 (configuration not stated)
MIC [1]: > 50 µg/mL
MIC [2]: 25 µg/mL (≈ 98.3 µM)

O=C(c1ccc(OCC2CCCC2)cc1)C1CC1
MIC [1]: > 25 µg/mL
MIC [2]: 25 µg/mL (≈ 102 µM)

OC(c1ccc(OCc2ccc(F)cc2)cc1)C1CC1 (configuration not stated)
MIC [1]: 25 µg/mL (≈ 91.8 µM)
MIC [2]: 6.25 µg/mL (≈ 23 µM)

COc1ccc(COc2ccc(C(O)C3CC3)cc2)cc1 (configuration not stated)
MIC [1]: > 50 µg/mL
MIC [2]: 3.12 µg/mL (≈ 11 µM)

O=C(c1ccc(OCC2CCCCC2)cc1)C1CC1
MIC [1]: > 25 µg/mL
MIC [2]: > 25 µg/mL

OC(c1ccc(OCc2ccco2)cc1)C1CC1 (configuration not stated)
MIC [1]: > 25 µg/mL
MIC [2]: > 25 µg/mL

O=C(c1ccc(OCc2ccc(F)cc2)cc1)C1CC1
MIC [1]: > 25 µg/mL
MIC [2]: 12.5 µg/mL (≈ 46.2 µM)

COc1ccc(COc2ccc(CC3CC3)cc2)cc1
MIC [1]: > 25 µg/mL
MIC [2]: 25 µg/mL (≈ 93.2 µM)

O=C(c1ccc(OCc2ccc(Cl)cc2)cc1)C1CC1
MIC [1]: > 25 µg/mL
MIC [2]: 25 µg/mL (≈ 87.2 µM)

Fc1ccc(COc2ccc(CC3CC3)cc2)cc1
MIC [2]: 12.5 µg/mL (≈ 48.8 µM)
